This data set can be described thus: Equilibrium/saturation study of solvent solubility in PVA solutions with increasing salt concentration. The format is physicochemical. As for the experimental part:
An equilibrium/saturation study was performed to measure solvent solubilities in PVA solutions in increasing salt concentration levels. The saturation solubility in weight % of ethyl acetate and methylene chloride were individually tested with varying sodium chloride weight % in a 2% PVA aqueous solution. […] At about 15 weight % sodium chloride contention, the PVA began to salt out of the solution.

With `CCOC(C)=O` [ethyl acetate], the “saturation solubility in weight % as the sodium chloride content was increased” value is recorded as “decreased”.

The values above are taken from patent US10821080B2, “Microencapsulation process with solvent and salt” (Evonik Corporation, priority 2008, dated 2020).
